From paper PMC10542788, “Discovery of a cystathionine γ-lyase (CSE) selective inhibitor targeting active-site pyridoxal 5′-phosphate (PLP) via Schiff base formation” (Scientific Reports, 2023)

How the values were obtained:
human CSE (hCSE) = target: T1, human CSE (hCSE) (Homo sapiens, UniProt P32929); test: hCSE inhibition in lysate of HEK293T cells expressing hCSE, HSip-1; type: biochemical; conditions: mean ± S.E., read-out: IC50, inhibitory activity towards hCSE in cell lysate
T1 construct: expressed in transfected cells; host or cells: HEK293T
Experimental: We first examined whether or not 1 inhibits human CSE (hCSE) in cell lysates. We prepared the lysate of HEK293T cells expressing hCSE, and added 1.5 mM cysteine, 100 μM PLP, 1 μM HSip-1 and various concentrations of 1 to it. Based on fluorescence measurements, the IC50 value of 1 for hCSE was calculated to be 26 ± 2 µM, which is similar to the value for rCSE measured in HEPES buffer (Fig. 4b). […] We also confirmed that all amino acid residues of rCSE involved in the recognition of 1 are conserved in hCSE (Supplementary Fig. S10).
10 µL of 1.5 mM cysteine solution in 30 mM HEPES (pH 7.4) was added to 10 µL of solution containing 300 µg/mL cell lysate of HEK293T cells expressing hCSE, 100 µM PLP, 1 µM HSip-1, 0.005% tween 20 and various concentrations of the inhibitor (0.5% DMSO as a cosolvent). The mixture was incubated at 37 °C for 3 h and the fluorescence intensity of HSip-1 was measured with a microplate reader.

ALT = ALT inhibition, coupled absorbance assay (NADH, 340 nm); type: biochemical; conditions: 30 µM
Experimental: (§1) The selectivity of 1, 2 and PAG for rCSE over other RSS-producing enzymes, CBS and 3MST, was examined (Fig. 4a). CBS is a PLP-dependent enzyme, like CSE, and produces H2S from cysteine and homocysteine as substrates. 3MST is also an H2S-producing enzyme, but is not PLP-dependent and uses 3-mercaptopyruvate as a substrate. The amount of H2S produced by CBS or 3MST was evaluated in the presence or absence of the inhibitor by measuring the fluorescence intensity of HSip-1. […] We also examined the inhibitory activity towards two other PLP-dependent enzymes, MGL and ALT. MGL metabolizes L-methionine to α-ketobutyric acid, methanethiol and ammonia, and is inhibited by PAG[14]. MGL also produces H2S from homocysteine as a substrate, and this activity of MGL can be measured by fluorescence detection with HSip-1. […] The enzymatic activity of ALT can be assessed by means of a coupled assay using the reduction of pyruvate to L-lactate with lactate dehydrogenase and NADH and measuring the change in absorption of NADH.
An alanine aminotransferase activity assay kit (BioVision, Inc.) was used to measure the activity of ALT. A mixture of L-alanine, NADH, LDH (lactate dehydrogenase) and ALT was incubated at 37 °C for 15 min, then α-ketoglutarate was added to the mixture and the absorbance at 340 nm was measured with a microplate reader.

MGL = MGL inhibition, HSip-1 fluorescence; type: biochemical; conditions: 30 µM
Experimental: as §1
10 µL of 200 µM homocysteine in 30 mM HEPES (pH 7.4) was added to 10 µL of a solution containing 20 µg/mL MGL (Sigma-Aldrich), 100 µM PLP, 1 µM HSip-1, 0.005% tween 20 and various concentrations of the inhibitor (0.5% DMSO as a cosolvent). The mixture was incubated at 25 °C for 100 min and the fluorescence intensity of HSip-1 was measured with a microplate reader.

hCSE = target: T2, hCSE (Homo sapiens, UniProt P32929); test: hCSE inhibition in living HEK293T cells expressing hCSE (pretreatment, wash, lysis, HSip-1); type: cell-based
T2 construct: expressed in transfected cells; host or cells: HEK293T
Experimental: We next examined the suitability of 1 for live-cell experiments. First, we performed CCK-8 assay (Dojindo) to examine its cytotoxicity. COS7 cells were incubated with various concentrations of 1 for 27 h at 37 °C under 5% CO2 and the cell viability was assessed. […] We then examined whether 1 can inhibit the enzymatic activity of hCSE in living cells by employing an indirect approach (Supplementary Fig. S12). HEK293T cells expressing hCSE were incubated with 0–1 mM 1 for 30 min, then washed twice with phosphate-buffered saline (PBS), and lysed in RIPA buffer (50 mM Tris–HCl buffer (pH 7.6), 150 mM NaCl, 1% Nonidet P40 Substitute, 0.5% sodium deoxycholate, protease inhibitor cocktail, 0.1% SDS). The inhibitory activity of 1 was evaluated by fluorescence detection after adding 1.5 mM cysteine, 100 μM PLP and 1 μM HSip-1 to these cell lysates.
Supplementary Figure S12. Experimental protocol for the indirect assessment of the hCSE-inhibitory activity of 1 in living cells. […] L-Cysteine (substrate), PLP and HSip-1 were added to the cell lysate (450 μg/mL cell lysate, 1.5 mM L-cysteine, 100 μM PLP, 1 μM HSip-1 in 30 mM HEPES buffer (pH 7.4) containing 0.005% Tween 20), and the fluorescence was measured with a plate reader (Ex. = 490 nm, Em. = 510 nm).

rCSE = rCSE (Rattus norvegicus, UniProt P18757); test: rCSE inhibition, H2S detection by gas chromatography; type: biochemical; design: His-tag (C); made in house; host or cells: E. coli BL21; conditions: 1.5 mM cysteine, 100 μM PLP, mean ± S.E., read-out: IC50, inhibition of H2S production by rCSE
Experimental: Next, in order to further confirm the CSE-inhibitory ability of 1, we employed a gas chromatographic method. A mixture of 30 μg/mL rCSE, 100 μM PLP and 1.5 mM cysteine in 30 mM HEPES buffer (pH 7.4) with or without 1 or PAG was incubated in a sealed glass vial, and the air containing enzymatically produced H2S in the glass vial was analyzed by gas chromatography.
Supplementary Figure S4. (a) H2S production by rCSE in the presence of various concentrations of 1 was measured by gas chromatography. A solution of 30 μg/mL rCSE, 100 μM PLP and 1.5 mM cysteine in 30 mM HEPES buffer (pH 7.4) was incubated at r.t. for 60 min. Error bars represent ±S.D. (n = 4). (b) Inhibitory activity of 1 (mean ± S.E.). H2S was detected by gas chromatography. Error bars represent ± S.D. (n = 4).

T2 sequence (P32929 whole entry): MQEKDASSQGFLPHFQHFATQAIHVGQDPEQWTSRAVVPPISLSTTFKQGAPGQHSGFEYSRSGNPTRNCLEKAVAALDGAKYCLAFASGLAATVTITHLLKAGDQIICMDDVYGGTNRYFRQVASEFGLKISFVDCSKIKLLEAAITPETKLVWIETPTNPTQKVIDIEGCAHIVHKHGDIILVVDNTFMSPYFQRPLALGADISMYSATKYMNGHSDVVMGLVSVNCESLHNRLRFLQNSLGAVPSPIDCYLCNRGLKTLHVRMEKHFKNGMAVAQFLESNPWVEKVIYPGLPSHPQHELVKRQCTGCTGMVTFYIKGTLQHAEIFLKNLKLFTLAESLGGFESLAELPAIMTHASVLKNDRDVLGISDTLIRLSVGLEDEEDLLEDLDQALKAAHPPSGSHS
T1 sequence (P32929 whole entry): as above
Chain of rCSE (P18757 whole entry): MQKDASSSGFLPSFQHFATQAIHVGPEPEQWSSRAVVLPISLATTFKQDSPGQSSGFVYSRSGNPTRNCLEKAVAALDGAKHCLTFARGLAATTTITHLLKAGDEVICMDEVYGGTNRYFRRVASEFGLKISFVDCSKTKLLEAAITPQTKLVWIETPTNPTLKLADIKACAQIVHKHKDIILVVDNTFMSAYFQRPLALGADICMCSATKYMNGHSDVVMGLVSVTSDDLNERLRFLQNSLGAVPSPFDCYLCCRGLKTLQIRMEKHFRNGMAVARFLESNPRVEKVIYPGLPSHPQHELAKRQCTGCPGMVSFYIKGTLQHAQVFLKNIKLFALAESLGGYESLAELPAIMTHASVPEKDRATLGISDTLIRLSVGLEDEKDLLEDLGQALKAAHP

IC50 (human CSE (hCSE)): 26 ± 2 µM | IC50 (hCSE; HEK293T cells expressing hCSE incubated 30 min with 1, washed, lysed, mean ± S.E., read-out: IC50, inhibitory activity towards hCSE in living cells): 170 ± 33 µM | cell-membrane permeability (hCSE; concluded from inhibition of hCSE in living cells): sufficiently cell-membrane permeable | IC50 (rCSE): 23 ± 6 µM
Structure (SMILES): NNC(=O)C(N)=O [Compound 1, oxamic hydrazide]
inhibitory activity towards ALT / selectivity for CSE over ALT (ALT): high selectivity for CSE over MGL and ALT | inhibitory activity towards MGL / selectivity for CSE over MGL (MGL): high selectivity for CSE over MGL and ALT
